Assay [1] has as its target Sodium-dependent serotonin transporter (Rattus norvegicus) (UniProt P31652). The assay can be described thus: Inhibitory activity against Serotonin transporter labeled with [3H]-paroxetine as radioligand at 100 nM concentration.
The target in assay [2] is T1, 5-hydroxytryptamine receptor 1A (Homo sapiens, UniProt P08908).
T1 sequence (P08908 whole entry): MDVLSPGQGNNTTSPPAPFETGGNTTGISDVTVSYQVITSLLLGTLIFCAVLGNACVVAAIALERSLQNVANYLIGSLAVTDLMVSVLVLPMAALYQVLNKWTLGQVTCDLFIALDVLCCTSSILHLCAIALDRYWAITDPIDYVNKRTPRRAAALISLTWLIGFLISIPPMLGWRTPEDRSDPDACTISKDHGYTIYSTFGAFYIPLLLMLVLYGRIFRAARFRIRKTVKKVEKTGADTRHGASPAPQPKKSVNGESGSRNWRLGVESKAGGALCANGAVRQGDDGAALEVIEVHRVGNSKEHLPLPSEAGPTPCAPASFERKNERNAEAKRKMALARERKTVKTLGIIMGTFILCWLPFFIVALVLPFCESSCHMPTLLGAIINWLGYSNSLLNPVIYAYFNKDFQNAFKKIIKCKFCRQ
The assay can be described thus: Binding affinity towards 5-HT1A receptor using [3H]8-OH-DPAT as radioligand.

For assay [3], the target named is T1, 5-hydroxytryptamine receptor 1A. Kind of assay: Binding affinity towards 5-hydroxytryptamine 1A receptor using [3H]8-OH-DPAT as radioligand.
Assay [4] concerns the target Sodium-dependent serotonin transporter (Rattus norvegicus) (UniProt P31652). Kind of assay: Inhibitory activity against serotonin [5-HT] reuptake site labeled with [3H]paroxetine as radioligand at 100 nM concentration.
Assay [5] deals with T1, 5-hydroxytryptamine receptor 1A. Kind of assay: Binding affinity was determined towards 5-hydroxytryptamine 1A receptor using [3H]8-OH-DPAT as radioligand.
The target in assay [6] is T2, Sodium-dependent serotonin transporter (Rattus norvegicus, UniProt P31652). Kind of assay: Binding affinity towards serotonin [5-HT] reuptake site labeled with [3H]paroxetine as radioligand.
T2 sequence (P31652 whole entry): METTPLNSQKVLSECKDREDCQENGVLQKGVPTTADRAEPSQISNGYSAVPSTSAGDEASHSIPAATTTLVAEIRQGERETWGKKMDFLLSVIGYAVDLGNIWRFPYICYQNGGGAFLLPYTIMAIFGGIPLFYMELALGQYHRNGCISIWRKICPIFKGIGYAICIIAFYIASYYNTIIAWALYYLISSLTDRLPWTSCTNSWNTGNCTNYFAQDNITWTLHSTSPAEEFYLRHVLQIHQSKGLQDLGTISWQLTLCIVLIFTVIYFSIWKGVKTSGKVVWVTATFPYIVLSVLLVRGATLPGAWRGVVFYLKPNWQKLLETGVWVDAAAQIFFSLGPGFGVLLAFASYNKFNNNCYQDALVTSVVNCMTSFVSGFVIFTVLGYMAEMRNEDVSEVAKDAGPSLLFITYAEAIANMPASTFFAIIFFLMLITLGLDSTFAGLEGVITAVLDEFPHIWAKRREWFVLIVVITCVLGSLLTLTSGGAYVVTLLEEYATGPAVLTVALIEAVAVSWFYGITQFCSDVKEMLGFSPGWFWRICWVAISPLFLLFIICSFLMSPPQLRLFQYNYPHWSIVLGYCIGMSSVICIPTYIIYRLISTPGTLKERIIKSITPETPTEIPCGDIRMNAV
In assay [7] the target is T3, 5-hydroxytryptamine receptor 1A (Homo sapiens) (UniProt P08908).
T3 sequence (whole entry): T1 sequence (P08908 whole entry)
Kind of assay: Maximal response as a result of 5-hydroxytryptamine 1A receptor-mediated stimulation of [35S]GTP-gamma-S, binding. The class given is functional.

Assay [8] addresses Sodium-dependent serotonin transporter (Rattus norvegicus) (UniProt P31652). The assay can be described thus: Inhibitory activity against serotonin [5-HT] reuptake site labeled with [3H]-paroxetine as radioligand at 100 nM concentration.
In assay [9] the target is T3, 5-hydroxytryptamine receptor 1A (Homo sapiens). Kind of assay: Inhibitory activity against 5-hydroxytryptamine 1A receptor using [3H]-8-OH-DPAT as radioligand at 100 nM concentration.
Assay [10] shares this target. The assay can be described thus: Maximal response as a result of 5-HT1A receptor-mediated stimulation of [35S]GTP-gamma-S, binding. The class given is functional.
Assay [11] addresses T2, Sodium-dependent serotonin transporter. Kind of assay: Binding affinity towards Serotonin transporter labeled with [3H]paroxetine as radioligand.

Molecules are shown by their SMILES. Bounds are passed on as bounds.

Sequence of Sodium-dependent serotonin transporter (Rattus norvegicus) (P31652 whole entry): as above

In turn, `COc1ccc2sc(C3CCN(C[C@H](O)COc4cccc5[nH]ccc45)CC3)cc2c1` gave an inhibition in [1] of under 50%. Moreover, affinity in [2] was put at a Ki of 1.44 nM.
In the case of `CC(C)Oc1ccc2cc(C3CCN(C[C@H](O)COc4cccc5[nH]ccc45)CC3)sc2c1`, the inhibition in assay [1] is under 50%. In [3], this molecule registered a Ki of 19.9 nM.
In the case of `Oc1ccc2cc(C3CCN(C[C@H](O)COc4cccc5[nH]ccc45)CC3)sc2c1`, the inhibition in assay [4] was under 50%. Moreover, the inhibition constant Ki in [5] came out at 3.09 nM.
On to `O[C@H](COc1cccc2[nH]ccc12)CN1CCC(c2cc3ccccc3s2)CC1`, for which the results for the Ki in assay [5] and in assay [6] were 3.7 nM and 16.7 nM, respectively. For the same molecule, the Emax in assay [7] turned out to be 12.3%.
For `Cc1cc2c(OC[C@@H](O)CN3CCC(c4cc5c(F)cccc5s4)CC3)cccc2[nH]1`, in that order: 14.1 nM, 34.2 nM and 11.6%.
For `Cc1cccc2sc(C3CCN(C[C@H](O)COc4cccc5[nH]ccc45)CC3)cc12`, in that order: 4.7 nM, 3.69 nM and 17%.
For `O[C@H](COc1cccc2[nH]ccc12)CN1CCC(c2cc3cc(F)ccc3s2)CC1`, the Ki in assay [5] was determined as 29.4 nM; in assay [6], 11.8 nM. For the same molecule, the maximum response (Emax) in assay [7] was 13.2%.
Take `O[C@H](COc1cccc2[nH]ccc12)CN1CCC(c2cc3c(F)cccc3s2)CC1`: the Ki is 6.79 nM in assay [5] and 15.9 nM in assay [6]. In addition, the maximum response (Emax) in assay [7] was 11.2%.
For `Cc1c(C2CCN(C[C@H](O)COc3cccc4[nH]ccc34)CC2)sc2ccccc12`, the Ki was found to be 6.28 nM in assay [5] and 24.1 nM in assay [6].
Take `Cc1ccc2cc(C3CCN(C[C@H](O)COc4cccc5[nH]ccc45)CC3)sc2c1`: the values for the inhibition constant Ki in assay [5] and in assay [6] were 12.7 nM and 50.5 nM, respectively. The same molecule came in with a maximal effect (Emax) in assay [7] of 13.8%.
`Oc1cccc2cc(C3CCN(C[C@H](O)COc4cccc5[nH]ccc45)CC3)sc12`: the Ki was 7.12 nM in [5] and 37.2 nM in [6]. Besides, the Emax in [7] is 12.5%.
In [1], `CC(C)Oc1cccc2sc(C3CCN(C[C@H](O)COc4cccc5[nH]ccc45)CC3)cc12` registered an inhibition of under 50%. In assay [2], the Ki amounted to 7.45 nM.
In the case of `O[C@H](COc1cccc2[nH]ccc12)CN1CCC(c2cc3cc(Cl)ccc3s2)CC1`, the inhibition constant (Ki) in assay [5] came to 7.21 nM; in assay [6], 105 nM. The Emax in assay [7] was determined as 11%.
Consider `COc1ccc2c(C)c(C3CCN(C[C@H](O)COc4cccc5[nH]ccc45)CC3)sc2c1`, for which the inhibition in assay [8] was under 50%. Besides, the Ki in [5] worked out at 6.07 nM.
On to `O[C@H](COc1cccc2[nH]ccc12)CN1CCC(c2cc3ccc(F)cc3s2)CC1`, for which the figures for the Ki in [5] and in assay [6] were 9.31 nM and 1.99 nM, respectively. The maximal effect (Emax) in assay [7] was 11.7%.
As for `Cc1c(C2CCN(C[C@H](O)COc3cccc4[nH]ccc34)CC2)sc2ccc(F)cc12`, the inhibition in [4] is under 50%. This molecule showed an inhibition constant Ki in [5] of 5.17 nM.
For `COc1cccc2sc(C3CCN(C[C@H](O)COc4cccc5[nH]ccc45)CC3)cc12`, the Ki in assay [6] came out at 12.6 nM. In addition, the Emax in assay [7] was determined as 7.47%.
For `Cc1cc(C)c2cc(C3CCN(C[C@H](O)COc4cccc5[nH]c(C)cc45)CC3)sc2c1`, the Ki in assay [5] was determined as 27.8 nM; in assay [6], 52.1 nM. In addition, the Emax in assay [7] is 13.4%.
For `Cc1cc2c(OC[C@@H](O)CN3CCC(c4cc5cc(F)ccc5s4)CC3)cccc2[nH]1`, the inhibitory constant (Ki) in assay [5] is 7.5 nM; in [6], 5.27 nM. Besides, in [7], the Emax came to 12.1%.
Turning to `O[C@H](COc1cccc2[nH]ccc12)CN1CCC(c2cc3ccc(Cl)cc3s2)CC1`, the inhibitory constant (Ki) in assay [5] was 7.64 nM; in assay [6] it was 14 nM.
As for `Cc1cc(C)c2cc(C3CCN(C[C@H](O)COc4cccc5[nH]ccc45)CC3)sc2c1`, the inhibition in assay [8] and in [9] was under 50% in each case.
Consider `COc1ccc2cc(C3CCN(C[C@H](O)COc4cccc5[nH]ccc45)CC3)sc2c1`, for which the Emax in [10] was determined as 4.92%. Moreover, the results for the inhibition constant Ki in assay [11] and in assay [3] were 68.7 nM and 3.13 nM, respectively.
`Cc1ccc2cc(C3CCN(C[C@H](O)COc4cccc5[nH]c(C)cc45)CC3)sc2c1` registered an inhibition in [4] of under 50%. The molecule also displayed a Ki in assay [5] of 22.6 nM.
As for `COc1cccc2sc(C3CCN(C[C@H](O)COc4cccc5[nH]c(C)cc45)CC3)cc12`, the Ki was 4.83 nM in assay [5] and 51.2 nM in assay [6]. The same molecule returned an Emax in assay [7] of 9.05%.
As for `O[C@H](COc1cccc2[nH]ccc12)CN1CCC(c2cc3c(Cl)cccc3s2)CC1`, the inhibition constant (Ki) in assay [5] came to 9.12 nM; in assay [6], 15.6 nM.
Consider `Cc1cc2c(OC[C@@H](O)CN3CCC(c4cc5ccc(F)cc5s4)CC3)cccc2[nH]1`, for which the Ki in [5] is 15.3 nM; in [6], 11.3 nM. The molecule further yielded a maximal effect (Emax) in assay [7] of 12.6%.
In assay [10], `COc1cccc2cc(C3CCN(C[C@H](O)COc4cccc5[nH]ccc45)CC3)sc12` registered a maximum response (Emax) of 9.32%. Also, the Ki in assay [11] was 94.3 nM; in assay [3] it was 6.13 nM.
On to `Cc1cc2c(OC[C@@H](O)CN3CCC(c4cc5c(C)cccc5s4)CC3)cccc2[nH]1`, for which the inhibition constant (Ki) in assay [5] was determined as 10.4 nM; in assay [6], 17.4 nM. In addition, in assay [7], the maximal effect (Emax) is 12.1%.

The values above are taken from ChEMBL document CHEMBL1136520, “Advances toward new antidepressants beyond SSRIs: 1-aryloxy-3-piperidinylpropan-2-ols with dual 5-HT1A receptor antagonism/SSRI activities. Part 1” (Bioorg Med Chem Lett, 2003).
